The values below come from US20220218680A1, “TREATMENTS OF HEREDITARY ANGIOEDEMA” (KALVISTA PHARMACEUTICALS LIMITED, priority 2019, published 2022).

Series [1] is described as follows: Plasma free fraction by Rapid Equilibrium Dialysis. The note with it: 5 μM in neat human plasma, dialysed 5 hrs at 37° C. Format: in vitro ADME. As for the experimental part: Plasma free fraction was determined using “Rapid Equilibrium Dialysis” system (Thermo Scientific), test compounds were prepared at 5 μM in neat human plasma and dialysed against phosphate buffer for 5 hrs at 37° C. Quantification of the compound partitioned in two chambers of the dialysis device was performed via LCMS/MS. Fraction of compound unbound to plasma proteins presented as % of total.
Background: In equilibrium dialysis only unbound substance equilibrates across the membrane.

The test system of series [2] is HK cleavage by PKa in undiluted plasma. Kind of series: DXS-activated cleavage of HK in undiluted plasma (immunoblot). Format: biochemical. The note with it: 300 nM PKa inhibitor, 20 min incubation with DXS. As for the experimental part:
DXS-activated cleavage of HK in undiluted plasma was performed in the absence or presence of 300 nM PKa inhibitor and quantified by SDS-PAGE gel electrophoresis, using 7.5% Criterion TGX Precast gels (Biorad). Transfer was made onto Immunobilon-FL PVDF membrane. Image analysis was done using the LICOR imaging system. Mouse monoclonal anti-HK antibody (MAB15692, R&D systems) was used for traditional immunoblotting. Data presented as % of HK remaining after 20 min incubation with DXS compared to HK levels in unactivated plasma (Table 1).

Series [3] is described as follows: Phase 1 single ascending dose study: plasma pharmacokinetics (LC MS/MS). The format is in vivo, human. The note with it: oral capsule, fasted, 5 mg to 600 mg. As for the experimental part: (§1) This study was a randomized, double-blind, placebo-controlled single ascending dose (SAD) and crossover studies for food effect and capsule/tablet formulations.
Samples for pharmacokinetic (PK) and PD assessment were taken at repeated intervals over 48 hours.
Plasma samples used for PK assessment were analysed using a validated liquid chromatography tandem mass spectrometry (LC MS/MS) method.

Another series addresses T1, Plasma Kallikrein (Homo sapiens, UniProt P03952).
T1 construct: PD measurements were determined in dextran sulfate (DXS) stimulated undiluted plasma using a fluorogenic enzyme assay; from tissue; host or cells: undiluted plasma of healthy male volunteers after oral dosing, stimulated ex vivo with dextran sulfate
Briefly: Phase 1 SAD / food effect: ex vivo PKa catalytic activity in DXS-stimulated undiluted plasma. As to the method: (§2) PD measurements were determined in dextran sulfate (DXS) stimulated undiluted plasma using a fluorogenic enzyme assay and capillary based HK cleavage immunoassay.
The time until appearance of detectable amidolytic enzyme activity in DXS-stimulated plasma (lag time) was calculated from the catalytic activity assay. The detection sensitivity of the rate of catalytic activity in plasma based on using a Spark (Tecan) fluorimeter is a fluorescence increase to reach 1ΔF unit/sec.

The test system of another series is HK cleavage. Briefly: Phase 1 SAD: ex vivo DXS-stimulated HK cleavage, capillary-based immunoassay (Wes). The format is in vivo, human. As to the method: as §2
DXS-stimulated cleavage of HK, in undiluted plasma was quantified by capillary-based immunoassay on the Wes System (ProteinSimple) using monoclonal anti-HK antibody and chemiluminescence-based detection. Plasma kallikrein mediated HK cleavage in undiluted citrated human plasma was induced by contact system activation with DXS (6.25 μg/ml) at 4° C. in selected samples from the SAD phase.

In series [4] the test system is plasma prekallikrein (PPK) cleavage. Briefly: Phase 1 SAD: ex vivo DXS-stimulated cleavage of plasma prekallikrein, Wes immunoassay. Format: in vivo, human. The note with it: 600 mg oral capsules, up to 12 hrs post-dose. The source says: (§3) DXS-stimulated cleavage of plasma prekallikrein and Factor XII (FXII) were quantified by capillary-based immunoassay on the Wes System (ProteinSimple) analogously.

The test system of series [5] is Factor XII (FXII) cleavage / FXIIa generation. Briefly: Phase 1 SAD: ex vivo DXS-stimulated generation of FXIIa, Wes immunoassay. The format is in vivo, human. The note with it: 600 mg oral capsules, up to 12 hrs post-dose.
Excerpt: as §3

Series [6] is described as follows: Phase 1 single ascending dose study: safety and tolerability. Format: in vivo, human. The note with it: phase I trial, healthy males, 5-600 mg oral.
Excerpt: as §1

In series [7] the test system is HK cleavage by PKa in undiluted citrated human plasma. Kind of series: Protection of HK from PKa-mediated cleavage in DXS-stimulated HAE and control plasma (WES immunoassay). The format is biochemical. As for the experimental part: High molecular weight kininogen (HK) cleavage in undiluted citrated human plasma was induced by contact system activation with dextran sulfate (DXS, Sigma #31395-10G; 6.25 μg/ml) on wet ice. […] HAE plasma was obtained from HAE subjects (n=6) and C1-inhibitor deficiency was confirmed by western blotting. Protection of HK from PKa mediated cleavage in DXS-stimulated whole undiluted plasma was then determined by two methods; traditional western blotting and a semi-automated capillary-based immunoassay.
Preparation of samples: Combine one part 5× fluorescent master mix with four parts of the 1:200 plasma sample. Vortex to mix. Heat the samples+fluorescent master mix and the biotinylated ladder at 95° C. for 5 minutes, vortex, and load onto the WES plate. Monoclonal anti-human HK antibody was used for this chemiluminescence-based detection method using the Wes System (ProteinSimple).
Analysis: Collect the peak area measurement obtained in the Compass software (cbz file) for the full-length HK molecular weight of the respective time-point sample with DXS-induced activation. The peak area is defined as the area calculated for the spectral peak profile for HK. To measure the plasma kallikrein inhibition by the compound, the percent full-length HK detected was calculated.

Series [8] is described as follows: Phase 2 study Part 1: pharmacokinetics in HAE patients. The note with it: human, plasma, 600 mg single oral dose, n = 27, preliminary, read-out: Cmax Mean (95% CI). Format: in vivo. As to the method: In Part 1, subjects will receive a single oral dose of 600 mg of the compound to investigate the safety, PK and PD of the compound during the intercritical period between HAE attacks.
Part 1: Blood samples for PK and PD measurements will be collected at the following timepoints: Pre-dose (0 h), 15 min, 30 min, 45 min, 1 h, 1.5 h, 2 h, 3 h, and 4 h post-dose. Vital signs (systolic blood pressure [SBP], diastolic blood pressure [DBP], pulse rate [PR], respiratory rate [RR] and body temperature) will be measured at pre-dose (0 h), 1 h, and 4 h post-dose. Samples for post-treatment safety laboratory assessments will be taken with the 4 h PK/PD samples.
Non-compartmental PK parameters will include maximum concentration in plasma (Cmax), time to reach Cmax in plasma (tmax), and area under the curve from time 0 to last sample (AUC0-t). Compartmental PK modelling will describe the PK of the compound and generate underlying Cmax, tmax, AUC, apparent clearance (CL/F), apparent volume of distribution (Vd/F) and estimated terminal elimination half-life (t½).
The PK parameters of the compound will be determined from the individual concentration versus time data using Phoenix WinNonlin. In case of a deviation from the theoretical time, the actual time of blood sample will be used in the calculation of the derived PK parameters. […]

Series [9] can be described thus: Phase 1 multiple dose study: safety, tolerability and ECG. Format: in vivo, human. The note with it: 3 x 600 mg every 8, 4 or 2 hours, total 1800 mg, healthy adults. As to the method:
This is a phase 1, double-blind, placebo-controlled, multiple-dose, multiple-cohort study to evaluate safety and tolerability of the compound as well as of the ECG effects of the compound formulated as 100 mg Film Coated Tablets in healthy adult male and female subjects.
During the study, oral doses of 600 mg of the compound as Film Coated Tablets (six 100 mg tablets) or 6 matching placebo tablets will be administered once every 8 hours (Cohort 1) every 4 hours (Cohort 2), or every 2 hours (Cohort 3 and 4) to healthy adult male and female subjects up to a total dose of 1800 mg. In Cohorts 1, 2 and 3, 6 subjects will receive the compound as 100 mg Film Coated Tablets and 2 subjects will receive the placebo for a total of 8 subjects per cohort. In Cohort 4, 12 subjects will receive the compound as 100 mg Film Coated Tablets and 6 subjects will receive the placebo for a total of 18 subjects.
A Holter monitor will be attached to each subject in order to continuously record ECGs. The monitor will be attached 1 hour before the first dose and will remain attached until after the final blood sample collection. The electrodes for the Holter monitor will be checked by a member of the clinic staff at appropriate intervals to ensure they are attached.

For series [10] the following is noted: background, literature and labels; cited from earlier work.
Series [11] addresses T2, Human plasma kallikrein (Protogen) (Homo sapiens, UniProt P03952).
T2 construct: purchased Protogen
Briefly: Plasma kallikrein inhibitory activity in vitro (purified enzyme, fluorogenic substrate). Format: biochemical. The note with it: 25° C., substrate H-DPro-Phe-Arg-AFC. As to the method:
Human plasma kallikrein (Protogen) was incubated at 25° C. with the fluorogenic substrate H-DPro-Phe-Arg-AFC and various concentrations of the test compound. Residual enzyme activity (initial rate of reaction) was determined by measuring the change in […] at 410 nm and the IC50 value for the test compound was determined.

In series [12] the target is PKa in DXS-activated plasma (Homo sapiens, UniProt P03952). Kind of series: Catalytic activity of PKa in dextran sulfate-activated plasma (inhibitor added before DXS). The note with it: read-out: IC50 plasma enzyme. Format: biochemical. As for the experimental part:
Catalytic activity of PKa in dextran sulfate-activated (DXS, Sigma; 10 μg/ml) plasma (1:4 diluted or undiluted, VisuCon-F control plasma, Affinity Biologicals Inc) was determined by the time-dependent hydrolysis of fluorogenic substrate.

A further series concerns the target purified PKa (Homo sapiens, UniProt P03952). Briefly: Rate of formation of the enzyme-inhibitor complex (Kon). Format: biochemical. As for the experimental part: The rate of formation of the enzyme-inhibitor complex (Kon) was determined using purified PKa rapidly mixed with a solution containing fluorogenic substrate and a concentration range of inhibitor. The time-dependent establishment of inhibition was then used to calculate the rate of formation of the enzyme-inhibitor complex for each concentration of inhibitor. The Kon was calculated by plotting the rate of inhibition versus the inhibitor concentration. Data in Table 1 are presented in μM^−1 sec^−1.

In series [13] the target is T3, plasma kallikrein in pre-activated undiluted human plasma (Homo sapiens, UniProt P03952).
T3 construct: from tissue
Briefly: Inhibition of enzyme activity of pre-activated undiluted plasma (compound added after DXS). The format is biochemical. The note with it: added 3.5 minutes post DXS; compound 300, 1000, 3000 nM; C1-INH 3000 nM (FIG. 3B). As to the method: The ability of the compound to inhibit the enzyme activity of pre-activated plasma was assessed by addition of the compound after DXS stimulation. Aliquots of plasma (20 μL) were mixed with a 2.5 μL solution containing […] fluorogenic substrate (H-DPro-Phe-Arg-AFC) and a 2.5 μL solution of dextran sulphate (DXS; 100 μg/mL) which acted as an activator of the plasma kallikrein-kinin pathway. Enzyme activity was immediately measured by monitoring the accumulation of fluorescence liberated from the substrate by substrate cleavage over 16 minutes. At 3.5 minutes post DXS addition 5 μl of inhibitors or water control are were added into each well. The compound was tested at concentrations of 300, 1000 and 3000 nM. C1-INH at a concentration of 3000 nM and vehicle controls were also included.

T1 sequence (P03952 391-638 limits assumed): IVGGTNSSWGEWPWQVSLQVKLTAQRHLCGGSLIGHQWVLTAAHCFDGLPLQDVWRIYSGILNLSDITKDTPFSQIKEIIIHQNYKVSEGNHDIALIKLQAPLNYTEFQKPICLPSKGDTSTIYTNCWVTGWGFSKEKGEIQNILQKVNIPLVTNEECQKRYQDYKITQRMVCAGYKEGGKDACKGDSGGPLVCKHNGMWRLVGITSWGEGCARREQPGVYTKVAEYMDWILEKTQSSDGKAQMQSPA
T1 sequence (P03952 20-390 partner limits assumed): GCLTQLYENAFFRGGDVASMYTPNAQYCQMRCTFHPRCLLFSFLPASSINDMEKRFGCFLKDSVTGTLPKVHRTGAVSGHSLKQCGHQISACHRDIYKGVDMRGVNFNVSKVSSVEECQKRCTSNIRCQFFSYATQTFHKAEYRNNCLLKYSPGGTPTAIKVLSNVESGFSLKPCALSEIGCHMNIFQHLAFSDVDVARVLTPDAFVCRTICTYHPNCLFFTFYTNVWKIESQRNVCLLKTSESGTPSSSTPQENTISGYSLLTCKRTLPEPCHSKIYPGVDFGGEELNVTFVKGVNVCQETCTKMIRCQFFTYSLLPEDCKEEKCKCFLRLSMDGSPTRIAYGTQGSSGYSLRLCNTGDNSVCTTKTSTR
T3 sequence (P03952 391-638 limits assumed): as the sequence (P03952 391-638 limits assumed) above
T3 sequence (P03952 20-390 partner limits assumed): as the sequence (P03952 20-390 partner limits assumed) above
PKa in DXS-activated plasma, sequence (P03952 391-638 limits assumed): as the sequence (P03952 391-638 limits assumed) above
PKa in DXS-activated plasma, sequence (P03952 20-390 partner limits assumed): as the sequence (P03952 20-390 partner limits assumed) above
T2 sequence (P03952 391-638 limits assumed): as the sequence (P03952 391-638 limits assumed) above
T2 sequence (P03952 20-390 partner limits assumed): as the sequence (P03952 20-390 partner limits assumed) above
purified PKa, sequence (P03952 391-638 limits assumed): as the sequence (P03952 391-638 limits assumed) above
purified PKa, sequence (P03952 20-390 partner limits assumed): as the sequence (P03952 20-390 partner limits assumed) above

For `COCc1nn(Cc2ccc(Cn3ccccc3=O)cc2)cc1C(=O)NCc1nccc(OC)c1F` [compound of Formula A, N-[(3-fluoro-4-methoxypyridin-2-yl)methyl]-3-(methoxymethyl)-1-({4-[(2-oxopyridin-1-yl)methyl]phenyl}methyl)pyrazole-4-carboxamide], in series [1], the fraction unbound at 5 h, 5 μM was determined as 0.25. In addition, in [2], the “HK protection (% of HK remaining vs unactivated plasma)” value is 85%. For the same molecule, the plasma exposure entry in series [3] was “rapid and dose-dependent plasma exposure”. Also, the “lag time (time until appearance of catalytic activity during contact system activation)” value on Plasma Kallikrein (600 mg dose, tablet formulation) is “increases the time until appearance of catalytic activity”. The “food effect on the pharmacodynamic (PD) profile” value on Plasma Kallikrein (600 mg tablet, fed vs fasted) is listed as “no significant food-effect”. In addition, in the series with HK cleavage (600 mg oral capsules, up to 12 hrs post-dose), the “effect on HK cleavage in DXS-activated plasma” value is on record as “reduces HK cleavage”. Besides, the “duration of protection of HK from DXS-activated cleavage in undiluted plasma” value in the series on HK cleavage (single 600 mg dose) is given as “at least 10 hr”. Also, in series [4], the “effect on PPK cleavage in DXS-activated plasma” value is “reduces PPK cleavage”. For the same molecule, the “effect on generation of FXIIa in DXS-activated plasma” value in [5] is recorded as “reduces the generation of FXIIa”. In [6], the serious adverse events result is “No serious adverse events” and the tolerability entry was “no tolerability signals”. Further, the “protection against HK cleavage” value in series [7] (HAE plasma stimulated with dextran sulfate) is reported as “dose dependent protection against HK cleavage”. In addition, in series [7] (healthy control plasma stimulated with dextran sulfate), the “protection against HK cleavage” value is “dose dependent protection against HK cleavage”. Moreover, the Cmax in series [8] amounted to 5910 ng/mL. Further, in series [9], the “effects on the studied ECG parameters” value is on record as “No clinically relevant effects”, the serious adverse events result is reported as “No serious adverse events” and the “severity of reported adverse events” value was “mild”.
For the molecule Ecallantide, the “reported adverse reactions / risks” value in series [10] is listed as “risk of anaphylactic reactions”.
As for “C1-INH: C1 inhibitor (Sigma Cat #E0518), used as a therapeutic benchmark for HAE [Compound C1-INH]”, the IC50 turned out to be 50 nM in [11] and 1700 nM in [12]. This molecule gave a Kon with purified PKa of 40000 M⁻¹ s⁻¹. In series [13], the “inhibition of enzyme activity after activation of plasma” value is “slower action”.
Take `N#Cc1cccc([C@@H](NCC2CC2)c2ccc(F)c(NC(=O)c3cc(C(F)(F)F)nn3-c3cccc(CN)c3)c2)c1` [Berotralstat, reference compound]: in series [10], the “reported adverse reactions / risks” value is “more gastrointestinal adverse effects”.

B1: lanadelumab: recombinant fully human IgG1 kappa light chain monoclonal antibody, active substance of Takhzyro (antibody, chains of the INN, looked up, V domains shown)
VH: EVQLLESGGGLVQPGGSLRLSCAASGFTFSHYIMMWVRQAPGKGLEWVSGIYSSGGITVYADSVKGRFTISRDNSKNTLYLQMNSLRAEDTAVYYCAYRRIGVPRRDEFDIWGQGTMVTVSS
VL: DIQMTQSPSTLSASVGDRVTITCRASQSISSWLAWYQQKPGKAPKLLIYKASTLESGVPSRFSGSGSGTEFTLTISSLQPDDFATYYCQQYNTYWTFGQGTKVEIK
With B1, the “reported adverse reactions / risks” value in [10] was “hypersensitivity, injection site pain, injection site erythema, and injection site bruising”.

By fraction unbound is commonly meant free concentration divided by total concentration. Lower therefore signals extensive binding. For orientation: Cmax means the peak of the concentration-time curve. In general, IC50 refers to the point on the concentration scale where inhibition reaches its midpoint.
